According to US5622936A (priority 1988, dated 1997):

Key:
bone-marrow = test: Bone-marrow toxicity
[1] = Acute toxicity in male CD2 F1 mice with autopsy; assay type: in vivo, mouse; conditions: 100 and 1000 mg/kg i.p.
From the text: (§1) Autopsy of the animals after 28 days gave no findings. […] The result of autopsy (among others liver, kidneys, spleen, brain, bone marrow) on day 15 after the onset of treatment gave no finding.

[2] = system: mammary tumor cell-line 1C32; test: Cytotoxic activity in vitro, mammary tumor cell line 1C32; assay type: cell-based, rat
From the text: (§2) This was confirmed by measuring the biological efficiency, namely the cytotoxic activity in vitro by studies done on a murine retrothelial sarcoma, and on rat mammary tumor cell lines, and on Eb/Esb cell lines.

[3] = system: mammary tumor cell-line 1C39; test: Cytotoxic activity in vitro, mammary tumor cell line 1C39; assay type: cell-based, rat
From the text: as §2

[4] = system: mammary tumor cell-line 1C29; test: Cytotoxic activity in vitro, mammary tumor cell line 1C29; assay type: cell-based, rat
From the text: as §2

glycosidases = test: Enzymatic cleavage of the glycosidic bond by glycosidases (release of IPM); assay type: biochemical; conditions: glycosidases / enzyme mixtures, TLC, NBP detection
Experimental: On incubation of the glycosides in HEPES or water with corresponding glycosidases a rapid cleavage of the glycosidic bond could be observed.
(§3) Because each in 50 and 51 two glycosidic bonds are present, showing the same (51β) or a different configuration (f.i. 50α), along with single glucosidases enzyme mixtures were used to check the enzymatic release of IPM. The enzymatic cieavage of the pure anomeric conjugates 50 and 51 was monitored by TLC; intact conjugates or the cleavage products 28α, 28β or IPM were detected with NBP.

[5] = Stability in methanolic solution (TLC analysis); assay type: physicochemical; conditions: room temperature
β-glucosidase = test: Cleavage by a single enzyme, β-glucosidase (TLC); assay type: biochemical
From the text: as §3

[6] = Toxicity in BD6 rats with transplanted 1C32 tumor with autopsy; assay type: in vivo, rat
From the text: as §1

[7] = system: retrothelial sarcoma cells

O=P(NCCCl)(NCCCl)O[C@@H]1O[C@H](CO)[C@@H](O)[C@H](O)[C@H]1O [Compound 28β, β-D-Glucopyranosyl N,N'-di-(2-chloroethyl) phosphoric acid diamide]
bone-marrow toxicity (bone-marrow): very low | acute toxicity [1]: no acute toxicity could be observed | autopsy ([1]; after 28 days): no findings

O=P(NCCCl)(NCCCl)O[C@@H]1O[C@H](CO)[C@H](O)[C@H](O)[C@H]1O [Compound 29β, β-D-Galactopyranosyl N,N'-di-(2-chloroethyl) phosphoric acid diamide]
most effective agent (cytotoxic activity) [2]: always the most effective agent | most effective agent (cytotoxic activity) [3]: always the most effective agent | most effective agent (cytotoxic activity) [4]: always the most effective agent

O=P(NCCCl)(NCCCl)OC1O[C@H](CO)[C@@H](O[C@@H]2O[C@H](CO)[C@H](O)[C@H](O)[C@H]2O)[C@H](O)[C@H]1O (some centres unmarked) [Compound 50]
cleavage required for the release of IPM (glycosidases): cleavage of two different glycosidic bonds was required | stability [5]: stable

O=P(NCCCl)(NCCCl)OC1O[C@H](CO)[C@@H](O[C@@H]2O[C@H](CO)[C@@H](O)[C@H](O)[C@H]2O)[C@H](O)[C@H]1O (some centres unmarked) [Compound 51]
stability [5]: stable

O=P(NCCCl)(NCCCl)O[C@H]1O[C@H](CO)[C@@H](O[C@@H]2O[C@H](CO)[C@@H](O)[C@H](O)[C@H]2O)[C@H](O)[C@H]1O [Compound 51α, 4-O-(β-D-glucopyranosyl) α-D-glucopyranosyl N,N'-di-(2-chlorethyl) phosphoric acid diamide]
cleavage required for the release of IPM (glycosidases): cleavage of two different glycosidic bonds was required

O=P(NCCCl)(NCCCl)O[C@@H]1O[C@H](CO)[C@@H](O[C@@H]2O[C@H](CO)[C@@H](O)[C@H](O)[C@H]2O)[C@H](O)[C@H]1O [Compound 51β, 4-O-(β-D-Glucopyranosyl) β-D-glucopyranosyl N,N'-di-(2-chloroethyl) phosphoric acid diamide]
complete cleavage by a single enzyme (β-glucosidase): could be completely cleaved by a single enzyme

O=P(NCCCl)(NCCCl)OC1O[C@H](CO)[C@H](O)[C@H](O)[C@H]1O (some centres unmarked) [Gal-IPM]
toxicity ([6]; BD6 rats with transplanted 1C32 tumor, 5-122.5 and 5-245 mg/kg, resp.): did not show any toxicity | autopsy ([6]; day 15 after onset of treatment, liver, kidneys, spleen, brain, bone marrow): no finding

O=P(O)(NCCCl)NCCCl [IPM]
cytotoxicity [7]: cytotoxicity
